pIC50: −log10 of the molar value. Converted amounts (≈) assume the structure as drawn. Where two headings read alike, the source gives them in different places.

The test system of data set [1] is HCC3. In words: MTT cytotoxicity assay, HCC3 cell line. It counts as cell-based, human. The note with it: for pIC50: HCC3, MTT at 72 h; for IC50 Ratio (HCC3/B1): IC50 in HCC3 divided by IC50 in B1. The procedure: (§1) To test the activities of sodium trans-[tetrachlorobis(1H-indazole)ruthenate(III)] (“drug”), MTT assays were performed using selected hepatocellular carcinoma cell lines. Cells were plated (2×10^3 cells in 100 μl/well) in 96-well plates and allowed to recover for 24 hours. The drug was added in another 100 μl growth medium and incubated with cultured cells for 3 hours before the cell culture medium was replaced to remove the drug. Cell death was measured 72 hours after the initial incubation by MTT assay following the manufacturer's recommendations (EZ4U, Biomedica, Vienna, Austria).
(§2) In addition, the IC50 values of 5-FU and cisplatin in the Hep3B and HepG2 cell lines were obtained from Kogure et al., Cancer Chemother. Pharmacol., 53(4):296-304 (2004). The ratios of IC50 values of sodium trans-[tetrachlorobis(1H-indazole)ruthenate(III)] in a cell line sensitive to one of the other drugs and a cell line insensitive to the same drug were calculated.

The test system of data set [2] is B1. The experiment in a line: MTT cytotoxicity assay, B1 cell line. In kind it is cell-based, human. The procedure:
as §1, §2
(In general: Formazan colour is commonly taken as a measure of viable cells.)

Data set [3] has as its system Hep3B cells. The note with it: for increase in life span: versus control group (33 days). The procedure: Separately, the activity of sodium trans-[tetrachlorobis(1H-indazole)ruthenate(III)] against Hep3B cells was evaluated in xenograft experiments using female SCID mice as compared to the standard therapy sorafenib. Sodium trans-[tetrachlorobis(1H-indazole)ruthenate(III)] was administered IV at 30 mg/kg once a week for two weeks. Sorafenib was administered P.O. at 25 mg/kg daily five times a week for two weeks.

The subject of data set [4] is hepatocellular carcinoma. The settings on record: late stage HCC patients with well preserved liver function; cited from earlier work.
For data set [5], the system named is HCC1.2. The experiment in a line: MTT cytotoxicity assay, HCC1.2 cell line. It counts as cell-based, human. The settings on record: 3 h drug incubation, MTT at 72 h. The procedure: as §1
Data set [6] deals with Hep3B. In words: MTT cytotoxicity assay, Hep3B cell line. It counts as cell-based, human. The procedure: as §1, §2
Data set [7] relates to HepG2. In words: MTT cytotoxicity assay, HepG2 cell line. It counts as cell-based, human. The settings on record: for pIC50: HepG2; for IC50 Ratio (HepG2/Hep3B): IC50 in HepG2 divided by IC50 in Hep3B. The procedure:
as §1, §2

Data set [8] concerns HCC2. In words: MTT cytotoxicity assay, HCC2 cell line. In kind it is cell-based, human. The note with it: for pIC50: HCC2, MTT; for IC50 Ratio (HCC2/HCC3): IC50 in HCC2 divided by IC50 in HCC3. The procedure:
as §1, §2

The subject of data set [9] is hepatocellular carcinoma cell lines. The experiment in a line: MTT cytotoxicity assay, mean over selected hepatocellular carcinoma cell lines. The settings on record: mean over tested HCC cell lines, after 72 hours. In kind it is cell-based, human. The procedure: as §1
For data set [10], the system named is Hep3B cells. The experiment in a line: Apoptosis induction, DAPI staining of nuclear morphology. It counts as cell-based, human. The note with it: 24 hours of drug treatment. The procedure: To evaluate the mechanisms underlying the drug activity, apoptosis induction as well as impact on cell cycle distribution and proliferation of Hep3B cells were evaluated (FIG. 2). Specifically, the hepatoma cell line Hep3B was purchased from American Type Culture Collection (ATCC), Manassas, Va. All cells were grown in RPMI 1640 supplemented with 10% FCS. Cultures were regularly checked for Mycoplasma contamination. After 24 hours of drug treatment, cells were harvested, washed in PBS and cytospins were prepared. After fixation with a 1:1 methanol/acetone solution, slides were stained with 4′,6-diamidino-2-phenylindole (DAPI) containing antifade solution (Vector Laboratories, Inc., USA). Nuclear morphology of cells was examined using a Laica DMRXA fluorescence microscope (Laica Mikroskopie and System, Wetzlar, Germany) equipped with appropriate epifluorescence filters and a COHU charge-douples device camera. Duplicate slides were prepared for each cell type/treatment group and 300-500 cells were counted for each sample.
Treatment with sodium trans-[tetrachlorobis(1H-indazole)ruthenate(III)] led to typical morphological signs of programmed cell death like cell shrinkage, chromatin condensation and formation of apoptotic bodies. […]

Data set [11] deals with PARP. The experiment in a line: PARP cleavage by Western blot. The settings on record: 24 hours of drug treatment. In kind it is cell-based, human. The procedure: Treatment with sodium trans-[tetrachlorobis(1H-indazole)ruthenate(III)] led to typical morphological signs of programmed cell death like cell shrinkage, chromatin condensation and formation of apoptotic bodies. Apoptotic cell death induced by sodium trans-[tetrachlorobis(1H-indazole)ruthenate(III)] was further characterized by PARP cleavage examined by Western Blot Analyses. Specifically, after 24 hours of drug treatment, protein extracts were prepared and Western blot analyses performed. Rabbit Anti-PARP from Apoptosis Sampler kit (Cell Signaling Technology, Beverly, Mass.) (dilution 1:1000)[…]) was used. For loading control β-actin monoclonal mouse AC-15 (Sigma, USA, dilution: 1:1000) was used. All secondary peroxidase-labeled antibodies were purchased from Santa Cruz Biotechnology and used at working dilution of 1:10000.
(In general: A western blot detects proteins with antibodies after separation by electrophoresis.)

Data set [12] concerns Hep3B cells. In words: Mitochondrial membrane depolarization, JC-1 staining and FACS. It counts as cell-based, human.
In data set [13] the test system is Hep3B cells. The experiment in a line: DNA synthesis rate by 3H-thymidine incorporation. It counts as cell-based, human. (In general: Incorporation of labelled thymidine or its analogues reports DNA synthesis.)
Data set [14] relates to Hep3B cells. In words: Cell cycle distribution, PI staining and FACS. In kind it is cell-based, human. The settings on record: 24 hours of treatment, PI staining, FACS.
Data set [15] relates to stress kinase P38 and extracellular signal-regulated kinase (ERK). The experiment in a line: Phosphorylation of P38 and ERK. It counts as cell-based, human. The settings on record: 24 hours of treatment.
The subject of data set [16] is colon cancer cell line SW480. The settings on record: Kapitza et al. 2005; cited from earlier work.
Data set [17] concerns colon cancer cell line HT29. The note with it: Kapitza et al. 2005; cited from earlier work.
Data set [18] deals with HepG2. In words: Literature IC50 in HepG2 (Kogure et al.). It counts as cell-based, human. The note with it: ratio of literature IC50 values (Kogure et al.). The procedure:
In addition, the IC50 values of 5-FU and cisplatin in the Hep3B and HepG2 cell lines were obtained from Kogure et al., Cancer Chemother. Pharmacol., 53(4):296-304 (2004). The ratios of IC50 values of sodium trans-[tetrachlorobis(1H-indazole)ruthenate(III)] in a cell line sensitive to one of the other drugs and a cell line insensitive to the same drug were calculated. The results are shown in Tables 1-5 below (“Test Drug” in the tables denotes sodium trans-[tetrachlorobis(1H-indazole)ruthenate(III)]). […] As such, sodium trans-[tetrachlorobis(1H-indazole)ruthenate(III)] is potentially effective in treating hepatocellular carcinoma resistant to such other drugs.

The subject of data set [19] is Hep3B. The settings on record: from Kogure et al. 2004; cited from earlier work.
Data set [20] concerns HepG2. The note with it: from Kogure et al. 2004; cited from earlier work.
The mark [21] stands for this setting: Hep3B xenograft, female SCID mice.

By pIC50 is commonly meant the negative decadic logarithm of the IC50, by convention in mol/L. A higher pIC50 goes with a low IC50. In the case of `CNC(=O)c1cc(Oc2ccc(NC(=O)Nc3ccc(Cl)c(C(F)(F)F)c3)cc2)ccn1` [Sorafenib, sorafenib, reference compound], the results for the pIC50 in data set [1] (Homo sapiens) and in [2] (Homo sapiens) were below 5.00 and 6.10, respectively. Also, the “IC50 Ratio (HCC3/B1)” value in [1] is recorded as above 12.5. The mean survival in data set [3] (setting [21]) was determined as 60 days. In addition, in data set [3] (Hep3B xenograft), the “increase in life span” value is 1.9 fold. In addition, in [4], the added lifespan entry is “two”.
Take `[Cl][Ru-]([Cl])([Cl])[Cl].[Na+].c1ccc2[nH]ncc2c1.c1ccc2[nH]ncc2c1` [sodium trans-[tetrachlorobis(1H-indazole)ruthenate(III)]]: the pIC50 in data set [5] was 4.20; in [1] it was 4.17; in [2] it was 4.08; in [6] (MTT), 3.78; in data set [7] (MTT) it was 3.72; in data set [8] it was 3.89. The same compound showed a negative-log IC50 (pIC50) in data set [9] of 3.91. Besides, the “IC50 Ratio (HCC3/B1)” value in data set [1] was found to be 0.8. Moreover, the “IC50 Ratio (HepG2/Hep3B)” value in [7] stood at 1.1. Further, in data set [8], the “IC50 Ratio (HCC2/HCC3)” value is given as 1.9. Besides, in data set [10], the apoptosis induction result is “significant apoptosis”. Moreover, in [11], the PARP cleavage entry is reported as “PARP cleavage induced”. Also, the “cells with mitochondrial membrane depolarization” value in data set [12] is “increase of cells with mitochondrial membrane depolarization”. Also, the DNA synthesis rate result in data set [13] is “significantly reduce DNA synthesis rate”. Besides, the cell cycle distribution result in [14] is on record as “increase of cells in G2/M phase”. In addition, in [15], the “phosphorylation of P38 and ERK” value is “strong phosphorylation”. For the same compound, in data set [3] (setting [21]), the mean survival is reported as 80 days. In addition, the tumor growth result in data set [3] (Hep3B xenograft, female SCID mice, IV 30 mg/kg once a week for two weeks) is “effectively suppressed the growth of tumor”. Moreover, the “increase in life span” value in data set [3] (Hep3B xenograft) was found to be 2.4 fold. Moreover, in [3] (female SCID mice, IV 30 mg/kg once a week for two weeks), the tolerability entry is given as “well tolerated”. Besides, the “killing of tumor cells” value in [16] and in data set [17] was “effective in killing tumor cells” throughout.
For orientation: IC50 means the concentration that gives 50% inhibition. Regarding `N.N.[Cl][Pt][Cl]` [Cisplatin, cisplatin], in data set [18], the “IC50 Ratio (HepG2/Hep3B)” value was above 5.2. The results for the IC50 in data set [19] and in data set [20] were 3.75 µg/mL and 19.4 µg/mL, respectively.
As for `O=C1[O][Pt]2([NH][C@@H]3CCCC[C@H]3[NH]2)[O]C1=O` [Oxaliplatin, oxaliplatin, reference compound], the pIC50 in data set [1] was 6.39; in [8], 5.39. The “IC50 Ratio (HCC2/HCC3)” value in data set [8] was above 9.9.
As to `COc1cccc2c1C(=O)c1c(O)c3c(c(O)c1C2=O)C[C@@](O)(C(=O)CO)C[C@@H]3O[C@H]1C[C@H](N)[C@H](O)[C@H](C)O1` [Doxorubicin, doxorubicin, reference compound], the pIC50 was 7.16 in data set [6] (Homo sapiens) and below 6.60 in data set [7] (Homo sapiens). Moreover, in data set [7], the “IC50 Ratio (HepG2/Hep3B)” value is above 3.6.
Turning to `O=c1[nH]cc(F)c(=O)[nH]1` [5-FU], the “IC50 Ratio (HepG2/Hep3B)” value in data set [18] is reported as above 5.2. Also, the figures for the IC50 in data set [19] and in data set [20] were 227 µg/mL (≈ 1750 µM) and 17.2 µg/mL (≈ 132 µM), respectively.

(Values after patent publication US20130331368A1, “METHOD OF TREATING HEPATOCELLULAR CARCINOMA” (Niiki Pharma Acquisition Corp. 2, priority 2011, published 2013).)
